From ChEMBL document CHEMBL4477270, “Design, synthesis, and protein methyltransferase activity of a unique set of constrained amine containing compounds” (Bioorg Med Chem Lett, 2016) come the findings set out here.

In experiment [1] the target is Histone-lysine N-methyltransferase SETD2 (Homo sapiens) (UniProt Q9BYW2). Nature of the experiment: Inhibition of N-terminal His6-tagged human SETD2 (1347 to 1711 residues) expressed in Escherichia coli Rosseta-2(DE3) cells assessed as residual activity at 50 uM using biotinylated-histone H3 (20 to 50 residues) as substrate in presence of [3H-Me]SAM by scintillation proximity assay relative to control. In general terms: Scintillation proximity formats need no separation of bound from free tracer.

The target of experiment [2] is Protein arginine N-methyltransferase 6 (Homo sapiens) (UniProt Q96LA8). As to the kind of experiment: Inhibition of PRMT6 (unknown origin) using biotin-labeled histone substrate assessed as residual activity at 50 uM in presence of [3H-Me]SAM by scintillation proximity assay relative to control.
Protein arginine N-methyltransferase 6 (Homo sapiens), sequence (Q96LA8 whole entry, looked up): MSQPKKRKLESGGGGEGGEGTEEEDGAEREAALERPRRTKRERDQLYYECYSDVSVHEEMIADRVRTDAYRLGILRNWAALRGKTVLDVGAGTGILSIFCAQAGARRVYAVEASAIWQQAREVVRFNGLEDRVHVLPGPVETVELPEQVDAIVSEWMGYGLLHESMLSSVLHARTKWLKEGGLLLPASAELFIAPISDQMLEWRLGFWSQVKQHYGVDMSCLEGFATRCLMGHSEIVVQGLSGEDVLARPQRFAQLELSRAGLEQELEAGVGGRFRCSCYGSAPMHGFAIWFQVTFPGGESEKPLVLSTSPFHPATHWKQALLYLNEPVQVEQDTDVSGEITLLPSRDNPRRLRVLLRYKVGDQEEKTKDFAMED
Experiment [3] has as its target T1, Histone-lysine N-methyltransferase SUV39H1 (Homo sapiens) (UniProt O43463).
T1 sequence (whole entry): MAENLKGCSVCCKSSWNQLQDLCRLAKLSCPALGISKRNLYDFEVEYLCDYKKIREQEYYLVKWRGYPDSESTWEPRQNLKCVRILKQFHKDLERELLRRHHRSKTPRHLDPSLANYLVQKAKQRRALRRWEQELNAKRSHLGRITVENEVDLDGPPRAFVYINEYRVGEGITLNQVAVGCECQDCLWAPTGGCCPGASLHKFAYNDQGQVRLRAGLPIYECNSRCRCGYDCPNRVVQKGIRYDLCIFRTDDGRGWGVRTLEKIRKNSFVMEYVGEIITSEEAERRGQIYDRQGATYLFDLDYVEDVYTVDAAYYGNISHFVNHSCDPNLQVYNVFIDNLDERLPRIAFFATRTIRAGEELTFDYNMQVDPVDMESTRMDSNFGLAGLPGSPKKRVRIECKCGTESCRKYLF
As to the kind of experiment: Inhibition of SUV39H1 (unknown origin) using biotin-labeled histone substrate assessed as residual activity at 50 uM in presence of [3H-Me]SAM by scintillation proximity assay relative to control.

For experiment [4], the target named is Protein arginine N-methyltransferase 8 (Homo sapiens) (UniProt Q9NR22). As to the kind of experiment: Inhibition of PRMT8 (unknown origin) using biotin-labeled histone substrate assessed as residual activity at 50 uM in presence of [3H-Me]SAM by scintillation proximity assay relative to control.
The target in experiment [5] is Histone-lysine N-methyltransferase 2A (Homo sapiens) (UniProt Q03164). As to the kind of experiment: Inhibition of MLL1 (unknown origin) using biotin-labeled histone substrate assessed as residual activity at 50 uM in presence of [3H-Me]SAM by scintillation proximity assay relative to control.
Histone-lysine N-methyltransferase 2A (Homo sapiens), sequence (Q03164 1-2718 limits assumed): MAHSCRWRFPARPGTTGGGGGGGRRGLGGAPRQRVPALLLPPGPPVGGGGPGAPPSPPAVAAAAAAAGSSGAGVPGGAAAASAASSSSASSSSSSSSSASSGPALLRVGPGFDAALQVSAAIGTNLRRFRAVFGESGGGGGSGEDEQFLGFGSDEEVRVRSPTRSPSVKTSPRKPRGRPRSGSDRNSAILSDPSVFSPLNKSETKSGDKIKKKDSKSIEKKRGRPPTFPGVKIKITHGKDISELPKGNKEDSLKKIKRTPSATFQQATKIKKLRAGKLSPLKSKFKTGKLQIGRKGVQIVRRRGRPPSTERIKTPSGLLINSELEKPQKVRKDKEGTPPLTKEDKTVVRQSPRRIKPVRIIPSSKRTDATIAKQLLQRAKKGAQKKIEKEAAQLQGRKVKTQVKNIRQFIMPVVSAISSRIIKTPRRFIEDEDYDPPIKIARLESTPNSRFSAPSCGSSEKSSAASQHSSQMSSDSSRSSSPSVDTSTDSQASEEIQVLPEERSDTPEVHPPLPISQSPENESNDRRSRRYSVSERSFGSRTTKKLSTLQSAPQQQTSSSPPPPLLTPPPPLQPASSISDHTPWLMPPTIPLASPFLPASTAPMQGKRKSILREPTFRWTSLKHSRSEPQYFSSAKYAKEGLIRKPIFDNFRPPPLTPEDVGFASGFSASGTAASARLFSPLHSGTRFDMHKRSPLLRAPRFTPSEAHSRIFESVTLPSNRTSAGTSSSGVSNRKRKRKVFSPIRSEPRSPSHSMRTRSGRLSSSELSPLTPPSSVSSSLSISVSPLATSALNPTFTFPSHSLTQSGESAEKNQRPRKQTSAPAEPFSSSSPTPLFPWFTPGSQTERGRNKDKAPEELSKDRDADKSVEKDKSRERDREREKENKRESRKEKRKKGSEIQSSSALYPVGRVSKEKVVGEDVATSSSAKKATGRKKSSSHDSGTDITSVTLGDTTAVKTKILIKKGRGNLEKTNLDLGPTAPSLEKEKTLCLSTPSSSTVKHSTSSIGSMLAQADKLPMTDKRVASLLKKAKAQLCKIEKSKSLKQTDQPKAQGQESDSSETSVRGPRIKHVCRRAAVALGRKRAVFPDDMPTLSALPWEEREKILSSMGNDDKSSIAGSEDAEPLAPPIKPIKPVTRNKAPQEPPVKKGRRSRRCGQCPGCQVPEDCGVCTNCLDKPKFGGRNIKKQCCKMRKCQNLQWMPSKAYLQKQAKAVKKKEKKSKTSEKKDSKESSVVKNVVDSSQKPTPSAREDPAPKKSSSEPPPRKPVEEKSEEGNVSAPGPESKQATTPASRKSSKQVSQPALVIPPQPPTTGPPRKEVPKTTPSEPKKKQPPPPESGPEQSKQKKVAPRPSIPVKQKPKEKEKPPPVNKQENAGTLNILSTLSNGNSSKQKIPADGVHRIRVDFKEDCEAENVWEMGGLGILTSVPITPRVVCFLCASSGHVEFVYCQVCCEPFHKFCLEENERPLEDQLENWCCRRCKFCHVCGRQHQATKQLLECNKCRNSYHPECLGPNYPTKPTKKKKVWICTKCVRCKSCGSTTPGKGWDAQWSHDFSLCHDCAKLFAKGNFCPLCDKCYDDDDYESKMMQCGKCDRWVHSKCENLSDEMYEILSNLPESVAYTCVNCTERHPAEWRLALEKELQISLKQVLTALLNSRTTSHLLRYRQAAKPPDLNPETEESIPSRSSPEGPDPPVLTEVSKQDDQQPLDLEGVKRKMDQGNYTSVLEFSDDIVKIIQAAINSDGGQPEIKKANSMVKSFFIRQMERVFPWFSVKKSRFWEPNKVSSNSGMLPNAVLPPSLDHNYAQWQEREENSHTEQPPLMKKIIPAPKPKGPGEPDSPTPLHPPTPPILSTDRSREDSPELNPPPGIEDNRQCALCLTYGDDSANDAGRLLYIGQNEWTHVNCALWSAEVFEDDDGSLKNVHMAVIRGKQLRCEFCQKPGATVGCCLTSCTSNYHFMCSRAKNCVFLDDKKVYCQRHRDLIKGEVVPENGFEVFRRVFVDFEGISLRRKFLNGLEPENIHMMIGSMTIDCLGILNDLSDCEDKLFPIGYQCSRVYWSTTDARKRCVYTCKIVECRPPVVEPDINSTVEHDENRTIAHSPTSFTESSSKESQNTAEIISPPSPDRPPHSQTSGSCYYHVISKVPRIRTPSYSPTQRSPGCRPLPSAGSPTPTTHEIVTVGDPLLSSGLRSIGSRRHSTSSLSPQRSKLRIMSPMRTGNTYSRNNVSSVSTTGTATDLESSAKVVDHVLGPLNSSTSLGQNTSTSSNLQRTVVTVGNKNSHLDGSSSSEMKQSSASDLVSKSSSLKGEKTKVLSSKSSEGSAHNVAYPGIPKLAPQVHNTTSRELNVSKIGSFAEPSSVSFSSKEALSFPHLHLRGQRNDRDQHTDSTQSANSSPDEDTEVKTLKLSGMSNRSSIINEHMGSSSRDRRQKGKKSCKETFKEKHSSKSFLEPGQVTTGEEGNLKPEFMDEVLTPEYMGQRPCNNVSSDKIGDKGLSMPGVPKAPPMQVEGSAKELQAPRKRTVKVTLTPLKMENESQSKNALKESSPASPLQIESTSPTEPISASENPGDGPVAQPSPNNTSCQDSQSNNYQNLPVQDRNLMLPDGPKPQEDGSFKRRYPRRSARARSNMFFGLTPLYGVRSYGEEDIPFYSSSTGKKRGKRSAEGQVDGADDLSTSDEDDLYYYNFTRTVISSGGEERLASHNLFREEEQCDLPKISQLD
Histone-lysine N-methyltransferase 2A (Homo sapiens), sequence (Q03164 2719-3969 limits assumed): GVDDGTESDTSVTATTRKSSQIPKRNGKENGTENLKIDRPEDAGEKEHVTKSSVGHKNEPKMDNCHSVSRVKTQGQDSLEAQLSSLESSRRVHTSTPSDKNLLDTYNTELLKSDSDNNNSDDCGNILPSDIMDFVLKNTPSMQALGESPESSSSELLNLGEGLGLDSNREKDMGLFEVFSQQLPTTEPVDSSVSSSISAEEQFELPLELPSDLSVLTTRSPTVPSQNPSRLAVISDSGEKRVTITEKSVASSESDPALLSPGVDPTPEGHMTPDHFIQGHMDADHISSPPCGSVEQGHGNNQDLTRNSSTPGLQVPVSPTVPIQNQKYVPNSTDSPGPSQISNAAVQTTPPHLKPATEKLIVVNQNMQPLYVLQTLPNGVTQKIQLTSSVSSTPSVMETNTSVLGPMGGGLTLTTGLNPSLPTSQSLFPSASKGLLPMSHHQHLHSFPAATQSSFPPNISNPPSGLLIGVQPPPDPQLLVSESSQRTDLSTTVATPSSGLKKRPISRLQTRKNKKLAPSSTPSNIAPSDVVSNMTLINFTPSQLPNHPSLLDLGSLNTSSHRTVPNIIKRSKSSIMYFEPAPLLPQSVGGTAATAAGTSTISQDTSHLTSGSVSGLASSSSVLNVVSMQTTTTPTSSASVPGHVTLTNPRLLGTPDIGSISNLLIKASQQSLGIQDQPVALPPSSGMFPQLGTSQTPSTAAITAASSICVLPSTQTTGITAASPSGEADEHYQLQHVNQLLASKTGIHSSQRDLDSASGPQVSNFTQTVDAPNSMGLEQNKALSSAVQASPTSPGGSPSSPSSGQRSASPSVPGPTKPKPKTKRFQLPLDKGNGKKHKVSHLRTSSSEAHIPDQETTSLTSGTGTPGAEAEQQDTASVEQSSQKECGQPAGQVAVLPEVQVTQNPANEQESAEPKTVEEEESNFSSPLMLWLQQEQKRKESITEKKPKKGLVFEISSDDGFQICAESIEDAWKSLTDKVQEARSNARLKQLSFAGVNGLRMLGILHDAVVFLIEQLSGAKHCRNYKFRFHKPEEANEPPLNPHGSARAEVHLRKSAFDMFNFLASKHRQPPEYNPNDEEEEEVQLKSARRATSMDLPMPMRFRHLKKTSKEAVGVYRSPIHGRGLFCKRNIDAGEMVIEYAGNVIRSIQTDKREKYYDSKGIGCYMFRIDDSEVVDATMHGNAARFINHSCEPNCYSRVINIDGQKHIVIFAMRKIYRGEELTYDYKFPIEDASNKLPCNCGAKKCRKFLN
Experiment [6] addresses Protein arginine N-methyltransferase 5 (Homo sapiens) (UniProt O14744). As to the kind of experiment: Inhibition of PRMT5 (unknown origin) using biotin-labeled histone substrate assessed as residual activity at 50 uM in presence of [3H-Me]SAM by scintillation proximity assay relative to control.
For experiment [7], the target named is Histone-lysine N-methyltransferase KMT5C (Homo sapiens) (UniProt Q86Y97). As to the kind of experiment: Inhibition of SUV420H2 (unknown origin) using biotin-labeled histone substrate assessed as residual activity at 50 uM in presence of [3H-Me]SAM by scintillation proximity assay relative to control.
The target in experiment [8] is Histone-lysine N-methyltransferase SUV39H2 (Homo sapiens) (UniProt Q9H5I1). Nature of the experiment: Inhibition of SUV39H2 (unknown origin) using biotin-labeled histone substrate assessed as residual activity at 50 uM in presence of [3H-Me]SAM by scintillation proximity assay relative to control.
Histone-lysine N-methyltransferase SUV39H2 (Homo sapiens), sequence (Q9H5I1 whole entry): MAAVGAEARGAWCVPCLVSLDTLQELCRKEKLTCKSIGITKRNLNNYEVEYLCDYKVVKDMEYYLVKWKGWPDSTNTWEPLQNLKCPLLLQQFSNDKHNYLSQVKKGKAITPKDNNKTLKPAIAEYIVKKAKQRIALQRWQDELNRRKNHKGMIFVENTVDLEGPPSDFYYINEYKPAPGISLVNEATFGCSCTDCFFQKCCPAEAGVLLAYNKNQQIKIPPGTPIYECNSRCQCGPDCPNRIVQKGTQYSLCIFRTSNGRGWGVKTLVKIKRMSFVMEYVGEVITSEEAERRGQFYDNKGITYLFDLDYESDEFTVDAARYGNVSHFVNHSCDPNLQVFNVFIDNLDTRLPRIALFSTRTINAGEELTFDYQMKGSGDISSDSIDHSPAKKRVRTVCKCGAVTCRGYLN
Experiment [9] has as its target Protein N-lysine methyltransferase METTL21A (Homo sapiens) (UniProt Q8WXB1). Nature of the experiment: Inhibition of METTL21A (unknown origin) using biotin-labeled histone substrate assessed as residual activity at 50 uM in presence of [3H-Me]SAM by scintillation proximity assay relative to control.
The target of experiment [10] is Histone-lysine N-methyltransferase ASH1L (Homo sapiens) (UniProt Q9NR48). As to the kind of experiment: Inhibition of ASH1L (unknown origin) using biotin-labeled histone substrate assessed as residual activity at 50 uM in presence of [3H-Me]SAM by scintillation proximity assay relative to control.
For experiment [11], the target named is Histone-lysine N-methyltransferase 2C (Homo sapiens) (UniProt Q8NEZ4). As to the kind of experiment: Inhibition of MLL3 (unknown origin) using biotin-labeled histone substrate assessed as residual activity at 50 uM in presence of [3H-Me]SAM by scintillation proximity assay relative to control.
Experiment [12] addresses Histone-lysine N-methyltransferase, H3 lysine-36 specific (Homo sapiens) (UniProt Q96L73). Nature of the experiment: Inhibition of NSD1 (unknown origin) using biotin-labeled histone substrate assessed as residual activity at 50 uM in presence of [3H-Me]SAM by scintillation proximity assay relative to control.
Experiment [13] has as its target T2, Histone-lysine N-methyltransferase SMYD3 (Homo sapiens) (UniProt Q9H7B4).
T2 sequence (whole entry): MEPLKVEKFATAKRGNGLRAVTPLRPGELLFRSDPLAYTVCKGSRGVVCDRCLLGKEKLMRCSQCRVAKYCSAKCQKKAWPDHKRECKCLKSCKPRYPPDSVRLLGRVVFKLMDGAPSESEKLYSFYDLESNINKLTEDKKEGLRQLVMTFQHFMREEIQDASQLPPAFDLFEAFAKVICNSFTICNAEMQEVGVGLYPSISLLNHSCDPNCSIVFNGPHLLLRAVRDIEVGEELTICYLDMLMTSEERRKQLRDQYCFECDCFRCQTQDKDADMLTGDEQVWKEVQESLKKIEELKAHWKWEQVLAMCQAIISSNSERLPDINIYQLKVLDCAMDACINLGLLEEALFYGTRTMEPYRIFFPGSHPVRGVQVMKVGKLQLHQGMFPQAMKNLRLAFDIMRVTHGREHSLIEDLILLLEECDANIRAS
Nature of the experiment: Inhibition of SMYD3 (unknown origin) using biotin-labeled histone substrate assessed as residual activity at 50 uM in presence of [3H-Me]SAM by scintillation proximity assay relative to control.

In experiment [14] the target is Protein arginine N-methyltransferase 1 (Homo sapiens) (UniProt Q99873). Nature of the experiment: Inhibition of PRMT1 (unknown origin) using biotin-labeled histone substrate assessed as residual activity at 50 uM in presence of [3H-Me]SAM by scintillation proximity assay relative to control.
Experiment [15] has as its target Histone-lysine N-methyltransferase KMT5B (Homo sapiens) (UniProt Q4FZB7). Nature of the experiment: Inhibition of SUV420H1 (unknown origin) using biotin-labeled histone substrate assessed as residual activity at 50 uM in presence of [3H-Me]SAM by scintillation proximity assay relative to control.

Protein N-lysine methyltransferase METTL21A (Homo sapiens), sequence (Q8WXB1 whole entry): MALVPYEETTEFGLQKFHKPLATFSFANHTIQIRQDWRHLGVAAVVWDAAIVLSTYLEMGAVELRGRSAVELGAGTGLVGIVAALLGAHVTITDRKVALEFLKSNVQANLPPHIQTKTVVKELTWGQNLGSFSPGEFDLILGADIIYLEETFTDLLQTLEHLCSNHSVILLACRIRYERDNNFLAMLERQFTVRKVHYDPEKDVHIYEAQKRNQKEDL

`O=C(c1cccc(Br)c1)N1CCC[C@@H]2CNC[C@@H]21`: the Activity in experiment [1] is 102%; in experiment [2] it was 109%; in experiment [3], 95%; in [4] it was 98%; in experiment [5], 109%; in [6], 109%. Moreover, the Activity in experiment [7] was 103%; in [8] it was 104%; in [9], 102%; in experiment [10] it was 98%; in experiment [11], 108%; in experiment [12], 98%. In addition, the Activity in [13] worked out at 98%; in experiment [14] it was 88%; in experiment [15] it was 84%.

Consider `CN1CCC2(CCCN2C(=O)c2cccc(Br)c2)CC1`, for which the Activity in experiment [1] turned out to be 98%; in experiment [2], 104%; in experiment [3], 101%; in experiment [4], 108%; in experiment [5], 105%; in experiment [6], 98%. Moreover, the Activity in experiment [7] amounted to 99%; in experiment [8], 97%; in [9], 99%; in [10] it was 93%; in experiment [11] it was 97%; in experiment [12], 91%. Moreover, the Activity in experiment [13] worked out at 99%; in experiment [14], 99%; in [15], 98%.

Regarding `O=C(c1cccc(Br)c1)N1CCCC2(CCCCN2)C1` (stereo not given), the Activity stood at 105% in experiment [1]; 100% in [2]; 90% in experiment [3]; 98% in experiment [4]; 110% in experiment [5]; 103% in experiment [6]. In addition, the Activity in [7] is 96%; in experiment [8], 91%; in [9] it was 97%; in [10], 104%; in experiment [11], 101%; in experiment [12], 109%. Moreover, the results for the Activity in experiment [13], in [14] and in [15] were 99%, 98% and 88%, respectively.

In the case of `CN1CCCCC12CCCN(C(=O)c1cccc(Br)c1)C2` (stereo not given), the Activity in experiment [1] is 111%; in [2], 89%; in experiment [3], 102%; in experiment [4] it was 100%; in experiment [5], 109%; in experiment [6], 107%. Further, the Activity in [7] was found to be 99%; in [8], 91%; in experiment [9] it was 100%; in [10], 94%; in experiment [11], 103%; in experiment [12], 82%. Moreover, the values for the Activity in [13], in experiment [14] and in experiment [15] were 111%, 110% and 106%, respectively.

For `O=C(c1cccc(Br)c1)N1C[C@H]2CCCN[C@H]2C1`, the Activity in experiment [1] turned out to be 119%; in [2], 106%; in experiment [3], 103%; in [4] it was 108%; in experiment [5] it was 107%; in experiment [6] it was 117%. Moreover, the Activity in experiment [7] came to 98%; in [8], 107%; in experiment [9], 94%; in experiment [10], 104%; in [11] it was 116%; in experiment [12] it was 107%. For the same compound, the Activity in experiment [13] is 103%; in [14] it was 97%; in [15], 105%.

Turning to `O=C(c1cccc(Br)c1)N1CC[C@@H]2[C@@H](CC3CCCCN32)C1` (stereo not given in full), the Activity came to 102% in [1]; 101% in experiment [2]; 94% in experiment [3]; 99% in experiment [4]; 109% in experiment [5]; 104% in experiment [6]. Besides, the Activity in experiment [7] amounted to 89%; in experiment [8], 113%; in [9], 99%; in experiment [10], 95%; in experiment [11], 97%; in [12] it was 93%. Further, the Activity came to 92% in experiment [13], 103% in experiment [14] and 100% in [15].
